Assay results taken from patent US8680272B2, “3-arylethynyl substituted quinazolinone compounds” (Council of Scientific & Industrial Research, priority 2011, dated 2014).

Tests used:
CAKI-1 = test: Anticancer activity, SRB assay, renal cell line CAKI-1; assay type: cell-based; conditions: Homo sapiens; Renal CAKI-1; 48 h continuous drug exposure; read-out: Growth Inhibition GI50
Protocol: (§1) Some of biological activity studies were carried out at the National Cancer Institute (NCI), Maryland, USA.
(§2) The compounds were evaluated for anticancer activity against sixty human cancer cells derived from nine cancer types (leukemia cell line, non-small-cell lung cell line, colon cell line, CNS cell line, melanoma cell line, ovarian cell line, prostate cell line, renal cell line and breast cancer cell line) as shown in Table 1. For each compound, dose response curves for each cell line were measured at a minimum of five concentrations at 10 fold dilutions. A protocol of 48 h continuous drug exposure was used and a sulforhodamine B (SRB) protein assay was used to estimate cell viability or growth.

OVCAR-5 = test: Anticancer activity, SRB assay, ovarian cell line OVCAR-5; assay type: cell-based, human; conditions: Ovarian OVCAR-5, 48 h continuous drug exposure, —^b means GI50 values not attained at the concentrations used
Protocol: as §1, §2

SK-MEL-2 = test: Anticancer activity, SRB assay, melanoma cell line SK-MEL-2; assay type: cell-based, human; conditions: Melanoma SK-MEL-2, 48 h continuous drug exposure, —^b means GI50 values not attained at the concentrations used
Protocol: as §1, §2

KM12 = test: Anticancer activity, SRB assay, colon cell line KM12; assay type: cell-based; conditions: Homo sapiens, 48 h continuous drug exposure, read-out: Growth Inhibition GI50
Protocol: as §1, §2

SNB-19 = test: Anticancer activity, SRB assay, CNS cell line SNB-19; assay type: cell-based, human; conditions: CNS SNB-19, 48 h continuous drug exposure, —^b means GI50 values not attained at the concentrations used
Protocol: as §1, §2

NCI-H522 = test: Anticancer activity, SRB assay, non-small lung cell line NCI-H522; assay type: cell-based, human; conditions: Non-small lung NCl-H522, 48 h continuous drug exposure, —^b means GI50 values not attained at the concentrations used
Protocol: as §1, §2

786-0 = test: Anticancer activity, SRB assay, renal cell line 786-0; assay type: cell-based, human; conditions: Renal 786-0, 48 h continuous drug exposure, —^b means GI50 values not attained at the concentrations used
Protocol: as §1, §2

A498 = test: Anticancer activity, SRB assay, renal cell line A498; assay type: cell-based, human; conditions: 48 h continuous drug exposure, —^b means GI50 values not attained at the concentrations used
Protocol: as §1, §2

M14 = test: Anticancer activity, SRB assay, melanoma cell line M14; assay type: cell-based; conditions: Homo sapiens, 48 h continuous drug exposure, read-out: Growth Inhibition GI50
Protocol: as §1, §2

HCC-2998 = test: Anticancer activity, SRB assay, colon cell line HCC-2998; assay type: cell-based, human; conditions: Colon HCC-2998, 48 h continuous drug exposure, —^b means GI50 values not attained at the concentrations used
Protocol: as §1, §2

T-47D = test: Anticancer activity, SRB assay, breast cell line T-47D; assay type: cell-based, human; conditions: Breast T-47D, 48 h continuous drug exposure, —^b means GI50 values not attained at the concentrations used
Protocol: as §1, §2

OVCAR-8 = test: Anticancer activity, SRB assay, ovarian cell line OVCAR-8; assay type: cell-based, human; conditions: Ovarian OVCAR-8, 48 h continuous drug exposure, —^b means GI50 values not attained at the concentrations used
Protocol: as §1, §2

COLO 205 = test: Anticancer activity, SRB assay, colon cell line COLO 205; assay type: cell-based; conditions: Homo sapiens; Colon COLO 205; 48 h continuous drug exposure; read-out: Growth Inhibition GI50
Protocol: as §1, §2

NCI-H322M = test: Anticancer activity, SRB assay, non-small lung cell line NCI-H322M; assay type: cell-based, human; conditions: Non-small lung NCl-H322M, 48 h continuous drug exposure, —^b means GI50 values not attained at the concentrations used
Protocol: as §1, §2

UACC-257 = test: Anticancer activity, SRB assay, melanoma cell line UACC-257; assay type: cell-based; conditions: Homo sapiens; Melanoma UACC-257; 48 h continuous drug exposure; read-out: Growth Inhibition GI50
Protocol: as §1, §2

OVCAR-3 = test: Anticancer activity, SRB assay, ovarian cell line OVCAR-3; assay type: cell-based; conditions: Homo sapiens; Ovarian OVCAR-3; 48 h continuous drug exposure; read-out: Growth Inhibition GI50
Protocol: as §1, §2

[1] = system: six leukemia cancer cell lines (CCRF-CEM, HL-60, K-562, MOLT-4, SR and RPMI-8226); test: Anticancer activity, SRB assay, leukemia panel; assay type: cell-based, human; conditions: for GI50: Homo sapiens, six leukemia cancer cell lines, exposure period of at least 48 h, read-out: GI50 (range over the panel); for mean graph midpoint values (MG_MID) of log10 TGI (Log10TGI50) / mean graph midpoint values (MG_MID) of Log10LC50 / mean graph midpoint values (MG_MID) of Log10GI50: Leukemia; for mean graph midpoint values (MG_MID) of log10 TGI (Log10TGI50): log value of concentration of the compound resulting in total inhibition of net cell growth; for mean graph midpoint values (MG_MID) of Log10LC50: log value of the concentration of compounds leading to 50% net cell death; for mean graph midpoint values (MG_MID) of Log10GI50: log values of concentration in mol/L causing 50% inhibition of net cell growth
Protocol: as §1, §2

PC-3 = test: Anticancer activity, SRB assay, prostate cell line PC-3; assay type: cell-based, human; conditions: Prostate PC-3, 48 h continuous drug exposure, —^b means GI50 values not attained at the concentrations used
Protocol: as §1, §2

OVCAR-4 = test: Anticancer activity, SRB assay, ovarian cell line OVCAR-4; assay type: cell-based, human; conditions: Ovarian OVCAR-4, 48 h continuous drug exposure, —^b means GI50 values not attained at the concentrations used
Protocol: as §1, §2

ACHN = test: Anticancer activity, SRB assay, renal cell line ACHN; assay type: cell-based, human; conditions: 48 h continuous drug exposure, —^b means GI50 values not attained at the concentrations used
Protocol: as §1, §2

HL-60(TB) = test: Anticancer activity, SRB assay, leukemia cell line HL-60(TB); assay type: cell-based; conditions: Homo sapiens; Leukemia HL-60(TB); 48 h continuous drug exposure; read-out: Growth Inhibition GI50
Protocol: as §1, §2

SK-MEL-5 = test: Anticancer activity, SRB assay, melanoma cell line SK-MEL-5; assay type: cell-based; conditions: Homo sapiens; Melanoma SK-MEL-5; 48 h continuous drug exposure; read-out: Growth Inhibition GI50
Protocol: as §1, §2

SW-620 = test: Anticancer activity, SRB assay, colon cell line SW-620; assay type: cell-based; conditions: Homo sapiens; Colon SW-620; 48 h continuous drug exposure; read-out: Growth Inhibition GI50
Protocol: as §1, §2

MOLT-4 = test: Anticancer activity, SRB assay, leukemia cell line MOLT-4; assay type: cell-based; conditions: Homo sapiens; Leukemia MOLT-4; 48 h continuous drug exposure; read-out: Growth Inhibition GI50
Protocol: as §1, §2

[2] = system: nine melanoma cancer cell line (LOX IMVI, MALME-3M, M14, MDA-MB-435, SK-MEL-2, SK-MEL-28, SK-MEL-5, UACC-257 and UACC-62); test: Anticancer activity, SRB assay, melanoma panel; assay type: cell-based, human; conditions: Melanoma; for mean graph midpoint values (MG_MID) of log10 TGI (Log10TGI50): log value of concentration of the compound resulting in total inhibition of net cell growth; for mean graph midpoint values (MG_MID) of Log10LC50: log value of the concentration of compounds leading to 50% net cell death; for mean graph midpoint values (MG_MID) of Log10GI50: log values of concentration in mol/L causing 50% inhibition of net cell growth
Protocol: as §1, §2

[3] = Anticancer activity, SRB assay, melanoma panel; assay type: cell-based, human; conditions: Homo sapiens; nine melanoma cancer cell line; exposure period of at least 48 h; read-out: GI50 (range over the panel)
Protocol: as §1, §2

[4] = system: seven ovarian cancer cell lines (IGROV1, OVCAR-3, OVCAR-4, OVCAR-5, OVCAR-8, NCI/ADR-RES and SK-OV-3); test: Anticancer activity, SRB assay, ovarian panel; assay type: cell-based, human; conditions: for GI50: Homo sapiens, seven ovarian cancer cell lines, exposure period of at least 48 h, read-out: GI50 (range over the panel); for mean graph midpoint values (MG_MID) of log10 TGI (Log10TGI50) / mean graph midpoint values (MG_MID) of Log10LC50 / mean graph midpoint values (MG_MID) of Log10GI50: Ovarian; for mean graph midpoint values (MG_MID) of log10 TGI (Log10TGI50): log value of concentration of the compound resulting in total inhibition of net cell growth; for mean graph midpoint values (MG_MID) of Log10LC50: log value of the concentration of compounds leading to 50% net cell death; for mean graph midpoint values (MG_MID) of Log10GI50: log values of concentration in mol/L causing 50% inhibition of net cell growth
Protocol: as §1, §2

[5] = Homo sapiens, read-out: Growth Inhibition GI50

Structure (SMILES) | GI50 (CAKI-1) [µM] | GI50 (KM12) [µM] | GI50 (M14) [µM] | GI50 (COLO 205) [µM] | GI50 (UACC-257) [µM] | GI50 (OVCAR-3) [µM] | GI50 [1] [µM] | mean graph midpoint values (MG_MID) of log10 TGI (Log10TGI50) [1] | mean graph midpoint values (MG_MID) of Log10LC50 [1] | mean graph midpoint values (MG_MID) of Log10GI50 [1] [mol/L] | GI50 (HL-60(TB)) [µM] | GI50 (SK-MEL-5) [µM] | GI50 (SW-620) [µM] | GI50 (MOLT-4) [µM] | mean graph midpoint values (MG_MID) of log10 TGI (Log10TGI50) [2] | mean graph midpoint values (MG_MID) of Log10LC50 [2] | mean graph midpoint values (MG_MID) of Log10GI50 [2] [mol/L] | GI50 [3] [µM] | GI50 [4] [µM] | mean graph midpoint values (MG_MID) of log10 TGI (Log10TGI50) [4] | also measured
COc1ccc2cc(C#Cc3ccc(-n4c(/C=C/c5cc(OC)c(OC)c(OC)c5)nc5ccccc5c4=O)c(C)c3)ccc2c1 [Compound 6l, (E)-3-(4-((6-Methoxynaphthalen-2-yl)ethynyl)-2-methylphenyl)-2-(3,4,5-trimethoxystyryl)quinazolin-4(3H)-one] | 4.91 | 4.3 | 12.7 | 6.96 | 6.24 | 19.3 | 0.395 to 4.66 | >−4.00 | >−4.00 | −5.67 | 0.686 | 1.85 | 17.2 | 4.66 | >−4.00 | >−4.00 | −4.79 | 1.85 to 42.6 | 19.3 | >−4.00 | Growth Inhibition GI50 (OVCAR-5): —^b; Growth Inhibition GI50 (SK-MEL-2): —^b; Growth Inhibition GI50 (SNB-19): —^b; Growth Inhibition GI50 (NCI-H522): —^b; Growth Inhibition GI50 (786-0): —^b; Growth Inhibition GI50 (A498): —^b; Growth Inhibition GI50 (HCC-2998): —^b; Growth Inhibition GI50 (T-47D): —^b; Growth Inhibition GI50 (OVCAR-8): —^b; Growth Inhibition GI50 (NCI-H322M): —^b; Growth Inhibition GI50 (PC-3): —^b; Growth Inhibition GI50 (OVCAR-4): —^b; Growth Inhibition GI50 (ACHN): —^b; mean graph midpoint values (MG_MID) of Log10LC50 [4]: >−4.00; mean graph midpoint values (MG_MID) of Log10GI50 [4]: −4.10 mol/L
Cc1cc(C#Cc2ccccc2)ccc1-n1c(/C=C/c2ccc(O)cc2)nc2ccccc2c1=O [Compound 4b, (E)-2-(4-Hydroxystyryl)-3-(2-methyl-4-(phenylethynyl)phenyl)quinazolin-4(3H)-one] | 3.3 | 3.24 | 3.26 | 1.99 | 4.18 | 3.6 | 1.66 to 3.26 | −4.49 | >−4.00 | −5.64 | 1.66 | 1.77 | 4.08 | 2.36 | −4.79 | −4.16 | −5.54 | 1.77 to 4.54 | 3.09 to 20.6 | −4.23 | GI50 (OVCAR-5; [5]): 4.59 µM; GI50 (SK-MEL-2; [5]): 1.93 µM; GI50 (SNB-19; [5]): 6.91 µM; GI50 (NCI-H522; Homo sapiens, NCI-H522, read-out: Growth Inhibition GI50): 2.26 µM; GI50 (786-0; [5]): 3.65 µM; GI50 (A498; [5]): 1.56 µM; GI50 (HCC-2998; [5]): 2.35 µM; GI50 (T-47D; Homo sapiens, T47D, read-out: Growth Inhibition GI50): 2.02 µM; GI50 (OVCAR-8; [5]): 3.98 µM; GI50 (NCI-H322M; Homo sapiens, NCI-H322M, read-out: Growth Inhibition GI50): 2.93 µM; GI50 (PC-3; [5]): 3.24 µM; GI50 (OVCAR-4; [5]): 3.17 µM; GI50 (ACHN; [5]): 2.46 µM; mean graph midpoint values (MG_MID) of Log10LC50 [4]: >−4.00; mean graph midpoint values (MG_MID) of Log10GI50 [4]: −5.33 mol/L
